In patent US20250320213A1, “Nitrogen-Containing Heterocyclic Compounds” (Pfizer Inc., priority 2024, published 2025):

Assays:
[1] = system: CCL17 secretion in peripheral human whole blood; test: Human Whole Blood (HWB) CCL17 TR-FRET Assay (IL-13 stimulated CCL17 secretion); format: cell-based; conditions: Homo sapiens, 48 h, inhibition of CCL17 secretion in human whole blood, 10 ng/mL IL13, 48 hours
Description: The IC50 (half-maximal concentration required for inhibition) of compounds for the inhibition of CCL17 secretion in peripheral human whole blood, stimulated through the IL-13-IL-13 receptor/IL-4 receptor pathway was evaluated with a TR-FRET sandwich ELISA CCL17 (TARC) Assay Kit (Bioauxilium).
Test compounds (solubilized and serially diluted in DMSO, in an 11 point, 3-fold dilution series in duplicate) were spotted, 80 nL per well, into a 384 well v-bottom polypropylene plate. Human whole blood was collected from a peripheral vein, 714 units of sodium heparin was added for every 50 mL of blood collected. Sixty μL per well of blood was added to the compound plate. The blood plate was incubated for two hours at 37° C. After two hours, CCL17 production was stimulated with the addition of 20 μL per well of IL13 (R&D Systems) in HBSS with calcium and magnesium, with a final concentration of 10 ng/mL IL13. The plate containing blood, compound, and IL-13 was incubated at 37° C. for 48 hours, to allow for CCL17 production. After 48 hours, the plate was centrifuged at 1,500 revolutions per minute (RPM) for 7 minutes, with no braking. The CCL17 TR-FRET Assay Kit detection reagent was prepared according to kit instructions and 4 μL per well of the antibody cocktail was added to a 384-well white low volume non-binding coated plate (Corning). Sixteen μL of serum from the centrifuged blood plate was transferred to the detection plate containing the TR-FRET antibody cocktail. The plate was centrifuged briefly, then covered and incubated 16 hours at room temperature. The plate was then read on an EnVision 2105 multilabel reader (PerkinElmer) with settings for TR-FRET Ratio=10,000×(fluorescence intensity 665 nm/fluorescence intensity 615 nm).

STAT6 = molecular target: T1, STAT6 (Homo sapiens, UniProt P42226); test: STAT6 Reporter Luciferase Assay (IL-13 stimulated HaCaT keratinocyte NanoLuc reporter cells); format: cell-based; conditions: STAT6 NanoLuc luciferase reporter, IL-13 stimulated HaCaT keratinocyte cells; read-out: Reporter EC50
T1 construct: stably transfected HaCaT keratinocyte cell line, which expresses NanoLuc luciferase reporter gene under the transcriptional control of the STAT6 responsive promoter; endogenous in cells; host or cells: HaCaT keratinocyte reporter cell line (stably transfected with a NanoLuc reporter)
T1 sequence (P42226 1-847): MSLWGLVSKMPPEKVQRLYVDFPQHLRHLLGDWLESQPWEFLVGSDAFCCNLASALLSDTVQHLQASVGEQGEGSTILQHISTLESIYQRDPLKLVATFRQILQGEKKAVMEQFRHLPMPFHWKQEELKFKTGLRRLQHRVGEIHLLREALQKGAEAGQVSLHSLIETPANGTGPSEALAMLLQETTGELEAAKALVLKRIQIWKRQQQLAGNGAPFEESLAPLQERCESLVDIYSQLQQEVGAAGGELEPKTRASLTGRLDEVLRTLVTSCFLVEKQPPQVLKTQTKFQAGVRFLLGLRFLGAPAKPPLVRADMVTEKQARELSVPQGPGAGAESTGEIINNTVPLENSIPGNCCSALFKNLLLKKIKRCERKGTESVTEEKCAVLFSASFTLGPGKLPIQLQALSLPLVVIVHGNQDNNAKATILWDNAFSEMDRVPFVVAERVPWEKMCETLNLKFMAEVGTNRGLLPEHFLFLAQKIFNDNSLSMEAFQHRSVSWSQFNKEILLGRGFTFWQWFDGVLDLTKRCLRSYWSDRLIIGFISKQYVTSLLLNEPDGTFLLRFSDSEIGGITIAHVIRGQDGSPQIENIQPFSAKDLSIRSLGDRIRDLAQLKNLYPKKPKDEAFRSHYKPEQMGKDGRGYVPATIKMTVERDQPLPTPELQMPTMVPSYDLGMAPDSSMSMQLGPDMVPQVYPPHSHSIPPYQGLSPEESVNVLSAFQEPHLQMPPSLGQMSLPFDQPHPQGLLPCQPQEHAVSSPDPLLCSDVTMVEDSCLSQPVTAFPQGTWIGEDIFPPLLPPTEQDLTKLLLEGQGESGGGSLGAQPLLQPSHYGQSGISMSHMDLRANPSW
Outline: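 IL-13 (0.12 nM, 4 h) stimulated STAT6 reporter activity in HaCaT cells after a 2 h compound pre-incubation; NanoLuc signal was measured.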

IC50 [1] | EC50 (STAT6) | SMILES
45 nM | 4 nM | CCC1CN(c2ccc(C(=O)N(C)C)cn2)Cc2c(C(=O)NCc3ccc(NC(=O)N(C)C)cc3)nn(C)c21 (racemic) [Example 77, rac-(R)-5-(5-(Dimethylcarbamoyl)pyridin-2-yl)-N-(4-(3,3-dimethylureido)benzyl)-7-ethyl-1-methyl-4,5,6,7-tetrahydro-1H-pyrazolo[4,3-c]pyridine-3-carboxamide]
> 30000 nM | > 10000 nM | CC(C)n1nc(C(=O)NCc2ccc(NC(=O)N(C)C)cc2)c2c1CCN(c1ccc(N3CC(CO)OC3=O)cn1)C2 (racemic) [Example 80, rac-(R)-N-(4-(3,3-dimethylureido)benzyl)-5-(5-(5-(hydroxymethyl)-2-oxooxazolidin-3-yl)pyridin-2-yl)-1-isopropyl-4,5,6,7-tetrahydro-1H-pyrazolo[4,3-c]pyridine-3-carboxamide]
115 nM | 34 nM | CC(NC(=O)c1nn(C(C)C)c2c1CN(c1ccc(C(=O)N(C)C)cn1)CC2)c1ccc(NC(=O)N(C)C)cc1 (racemic) [Example 81, rac-(R)-5-(5-(dimethylcarbamoyl)pyridin-2-yl)-N-(1-(4-(3,3-dimethylureido)phenyl)ethyl)-1-isopropyl-4,5,6,7-tetrahydro-1H-pyrazolo[4,3-c]pyridine-3-carboxamide]
90 nM | 6 nM | CCC(C)n1nc(C(=O)NCc2ccc(NC(=O)N(C)C)cc2)c2c1CCN(c1ccc(C(=O)N(C)C)cn1)C2 (racemic) [Example 85, rac-(R)-1-(sec-butyl)-5-(5-(dimethylcarbamoyl)pyridin-2-yl)-N-(4-(3,3-dimethylureido)benzyl)-4,5,6,7-tetrahydro-1H-pyrazolo[4,3-c]pyridine-3-carboxamide]
67 nM | 25 nM | CN(C)C(=O)Nc1ccc(CNC(=O)c2nn(C3CCOC3)c3c2CN(c2ccc(C(=O)N(C)C)cn2)CC3)cc1 (racemic) [Example 90, rac-(R)-5-(5-(dimethylcarbamoyl)pyridin-2-yl)-N-(4-(3,3-dimethylureido)benzyl)-1-(tetrahydrofuran-3-yl)-4,5,6,7-tetrahydro-1H-pyrazolo[4,3-c]pyridine-3-carboxamide]
62 nM | 20 nM | COCC(C)n1nc(C(=O)NCc2ccc(NC(=O)N(C)C)cc2)c2c1CCN(c1ccc(C(=O)N(C)C)cn1)C2 (racemic) [Example 92, rac-(R)-5-(5-(dimethylcarbamoyl)pyridin-2-yl)-N-(4-(3,3-dimethylureido)benzyl)-1-(1-methoxypropan-2-yl)-4,5,6,7-tetrahydro-1H-pyrazolo[4,3-c]pyridine-3-carboxamide]
2270 nM | 525 nM | CC(C)n1nc(C(=O)NCc2ccc(NC(=O)N(C)C)cc2)c2c1CCN(c1ccc(N3CC(O)CC3=O)cn1)C2 (racemic) [Example 93, rac-(R)-N-(4-(3,3-dimethylureido)benzyl)-5-(5-(4-hydroxy-2-oxopyrrolidin-1-yl)pyridin-2-yl)-1-isopropyl-4,5,6,7-tetrahydro-1H-pyrazolo[4,3-c]pyridine-3-carboxamide]
6 nM | 1 nM | CC1CN(c2ccc(C(=O)N(C)C)cn2)Cc2c(C(=O)NCc3ccc(NC(=O)N(C)C)cc3)nn(C(C)C)c21 (racemic) [Example 95, rac-(R)-5-(5-(dimethylcarbamoyl)pyridin-2-yl)-N-(4-(3,3-dimethylureido)benzyl)-1-isopropyl-7-methyl-4,5,6,7-tetrahydro-1H-pyrazolo[4,3-c]pyridine-3-carboxamide]
53 nM | 5 nM | CC(n1nc(C(=O)NCc2ccc(NC(=O)N(C)C)cc2)c2c1CCN(c1ccc(C(=O)N(C)C)cn1)C2)C(F)(F)F (racemic) [Example 101, rac-(R)-5-(5-(dimethylcarbamoyl)pyridin-2-yl)-N-(4-(3,3-dimethylureido)benzyl)-1-(1,1,1-trifluoropropan-2-yl)-4,5,6,7-tetrahydro-1H-pyrazolo[4,3-c]pyridine-3-carboxamide]
12 nM | 2 nM | CCC1CN(c2ccc(C(=O)N(C)C)cn2)Cc2c(C(=O)NCc3ccc(NC(=O)N(C)C)cc3)nn(CC)c21 (racemic) [Example 115, rac-(R)-5-(5-(dimethylcarbamoyl)pyridin-2-yl)-N-(4-(3,3-dimethylureido)benzyl)-1,7-diethyl-4,5,6,7-tetrahydro-1H-pyrazolo[4,3-c]pyridine-3-carboxamide]
61 nM | 10 nM | CCC1Cc2c(c(C(=O)NCc3ccc(NC(=O)N(C)C)cc3)nn2CC)CN1c1ccc(C(=O)N(C)C)cn1 (racemic) [Example 116, rac-(R)-5-(5-(dimethylcarbamoyl)pyridin-2-yl)-N-(4-(3,3-dimethylureido)benzyl)-1,6-diethyl-4,5,6,7-tetrahydro-1H-pyrazolo[4,3-c]pyridine-3-carboxamide]
6 nM | 1 nM | CC(C)n1nc(C(=O)NCc2ccc(NC(=O)N(C)C)cn2)c2c1C(C(F)(F)F)CN(c1ccc(C(=O)N(C)C)cn1)C2 (racemic) [Example 121, rac-(R)-5-(5-(dimethylcarbamoyl)pyridin-2-yl)-N-((5-(3,3-dimethylureido)pyridin-2-yl)methyl)-1-isopropyl-7-(trifluoromethyl)-4,5,6,7-tetrahydro-1H-pyrazolo[4,3-c]pyridine-3-carboxamide]
77 nM | 23 nM | CCC1CN(c2ccc(C(=O)N(C)C)cn2)Cc2c(C(=O)NCc3ccc(NC(=O)N(C)C)cc3)nc(C)n21 (racemic) [Example 130, rac-(R)-7-(5-(dimethylcarbamoyl)pyridin-2-yl)-N-(4-(3,3-dimethylureido)benzyl)-5-ethyl-3-methyl-5,6,7,8-tetrahydroimidazo[1,5-a]pyrazine-1-carboxamide]
141 nM | 12 nM | CC(C)n1nc(C(=O)NCc2ccc(NC(=O)NCC3CCOC3)cc2)c2c1CCN(c1ccc(C(=O)N(C)C)cn1)C2 (racemic) [Example 155, rac-(R)-5-(5-(dimethylcarbamoyl)pyridin-2-yl)-1-isopropyl-N-(4-(3-((tetrahydrofuran-3-yl)methyl)ureido)benzyl)-4,5,6,7-tetrahydro-1H-pyrazolo[4,3-c]pyridine-3-carboxamide]
21 nM | 15 nM | CC(C)n1nc(C(=O)NCc2ccc(NC(=O)N3CCC(C)(O)C3)cc2)c2c1CCN(c1ccc(C(=O)N(C)C)cn1)C2 (racemic) [Example 160, rac-(R)-5-(5-(dimethylcarbamoyl)pyridin-2-yl)-N-(4-(3-hydroxy-3-methylpyrrolidine-1-carboxamido)benzyl)-1-isopropyl-4,5,6,7-tetrahydro-1H-pyrazolo[4,3-c]pyridine-3-carboxamide]

SMILES | IC50 [1] | EC50 (STAT6)
CN(C)C(=O)Nc1ccc(CNC(=O)c2nn(C)c3c2[C@H]2CC[C@@H](C3)N2c2ccc(C(=O)N(C)C)cn2)cc1 (racemic) [Example 86, rac-(4R,7S)-9-(5-(dimethylcarbamoyl)pyridin-2-yl)-N-(4-(3,3-dimethylureido)benzyl)-1-methyl-1,4,5,6,7,8-hexahydro-4,7-epiminocyclohepta[c]pyrazole-3-carboxamide] | > 30000 nM | > 10000 nM
